The source of these data is patent publication US11400085B2, “Method for preparing pharmaceutical composition for preventing or treating cognitive impairment-related disease and pharmaceutical composition for preventing or treating cognitive impairment-related disease prepared by the same” (priority 2018, dated 2022).

The nature of the data set: Comparison of blood concentrations of donepezil after injection or oral administration. The format is in vivo. The note with it: beagle dog, orally administered.

As for donepezil, the blood concentration duration result is recorded as “very short for about one day”.
